Data on 27 compounds can be found in US20080139558A1, “QUINOLONES USEFUL AS INDUCIBLE NITRIC OXIDE SYNTHASE INHIBITORS” (KALYPSYS, INC., priority 2006, published 2008).

SMILES strings stand for the structures.

Broadly, the EC50 is the concentration at which the effect is half-maximal.

The experiment deals with T1, human iNOS (Homo sapiens, UniProt P35228).
T1 construct: expressed in transfected cells; host or cells: HEK293
T1 sequence (P35228 whole entry): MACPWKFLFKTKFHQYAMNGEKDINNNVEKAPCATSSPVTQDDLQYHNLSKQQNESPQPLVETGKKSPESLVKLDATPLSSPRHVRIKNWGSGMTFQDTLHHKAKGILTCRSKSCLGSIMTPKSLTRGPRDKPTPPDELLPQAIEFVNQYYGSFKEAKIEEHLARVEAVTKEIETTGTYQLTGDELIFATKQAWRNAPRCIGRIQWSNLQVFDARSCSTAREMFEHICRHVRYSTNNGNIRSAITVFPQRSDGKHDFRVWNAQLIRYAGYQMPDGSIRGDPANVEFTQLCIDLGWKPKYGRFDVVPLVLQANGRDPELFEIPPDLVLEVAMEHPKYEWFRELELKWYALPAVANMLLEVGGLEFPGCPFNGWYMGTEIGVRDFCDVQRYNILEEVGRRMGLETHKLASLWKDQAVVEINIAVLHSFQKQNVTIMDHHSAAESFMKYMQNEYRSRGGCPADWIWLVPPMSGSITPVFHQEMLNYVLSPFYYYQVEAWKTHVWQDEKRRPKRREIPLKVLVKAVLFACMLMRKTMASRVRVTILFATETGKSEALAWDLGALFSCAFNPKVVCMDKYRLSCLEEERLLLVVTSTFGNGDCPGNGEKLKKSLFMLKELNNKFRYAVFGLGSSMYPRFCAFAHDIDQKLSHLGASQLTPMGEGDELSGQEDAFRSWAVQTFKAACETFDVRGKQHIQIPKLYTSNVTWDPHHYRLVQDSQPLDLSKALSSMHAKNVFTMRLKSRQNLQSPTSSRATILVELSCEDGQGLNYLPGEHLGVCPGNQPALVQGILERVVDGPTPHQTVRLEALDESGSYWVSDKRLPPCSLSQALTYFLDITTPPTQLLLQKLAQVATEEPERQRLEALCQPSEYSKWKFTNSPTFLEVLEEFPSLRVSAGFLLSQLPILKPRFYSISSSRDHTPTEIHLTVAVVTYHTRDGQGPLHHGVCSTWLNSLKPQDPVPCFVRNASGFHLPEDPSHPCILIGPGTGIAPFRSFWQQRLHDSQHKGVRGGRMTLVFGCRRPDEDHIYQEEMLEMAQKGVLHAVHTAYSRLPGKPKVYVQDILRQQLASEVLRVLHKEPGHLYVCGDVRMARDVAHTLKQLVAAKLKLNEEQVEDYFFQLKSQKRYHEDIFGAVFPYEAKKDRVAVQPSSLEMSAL
The experiment can be described thus: DAN assay of nitric oxide production (hiNOS). The settings on record: enzyme expressed in HEK293 cells transiently transfected with human iNOS. It is filed as cell-based. The gist of the method:
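Human iNOS transiently expressed in HEK293 cells; NO production quantified as nitrite via 2,3-diaminonaphthalene reaction forming fluorescent naphthotriazole.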
The compound `O=C(c1ccco1)N(Cc1cc(=O)[nH]c2ccccc12)c1cccc(Cl)c1` [Example 14, N-(3-Chlorophenyl)-N-[(2-oxo-1,2-dihydroquinolin-4-yl)methyl]-2-furamide] displayed a concentration giving a half-maximal response (EC50) of more than 5 µM. As to `O=C(c1ccccc1)N(Cc1cc(=O)[nH]c2ccccc12)c1ccccc1` [Example 6, N-[(2-Oxo-1,2-dihydroquinolin-4-yl)methyl]-N-phenylbenzamide], the concentration for a half-maximal effect (EC50) is more than 5 µM. The result for `Cc1ncsc1-c1nc2ccccc2n1Cc1cc(=O)[nH]c2c(F)cccc12` [Example 79, 8-Fluoro-4-((2-(4-methylthiazol-5-yl)-1H-benzo[d]imidazol-1-yl)methyl)quinolin-2(1H)-one] reads more than 5 µM. As for `O=C(c1ccco1)N(Cc1cc(=O)[nH]c2ccccc12)c1ccccc1` [Example 1, N-((2-Oxo-1,2-dihydroquinolin-4-yl)methyl)-N-phenylfuran-2-carboxamide], the half-maximal effective concentration (EC50) was not above 5 µM. Regarding `Cc1ccc2c(CN(C(=O)c3ccco3)c3ccccc3)cc(=O)[nH]c2c1` [Example 20, N-((7-Methyl-2-oxo-1,2-dihydroquinolin-4-yl)methyl)-N-phenylfuran-2-carboxamide], the concentration giving a half-maximal response (EC50) is not above 5 µM. The result for `Cc1cccc2c(CN(C(=O)c3ccco3)c3ccccc3)cc(=O)[nH]c12` [Example 16, N-((8-Methyl-2-oxo-1,2-dihydroquinolin-4-yl)methyl)-N-phenylfuran-2-carboxamide] reads not above 5 µM; that for `Cc1ncsc1C(=O)N(Cc1cc(=O)[nH]c2c(F)cccc12)c1ccc(F)c(F)c1` [Example 92, N-(3,4-Difluorophenyl)-N-((8-fluoro-2-oxo-1,2-dihydroquinolin-4-yl)methyl)-4-methylthiazole-5-carboxamide], not above 5 µM. For the compound `Cn1ccnc1C(=O)N(Cc1cc(=O)[nH]c2c(F)cccc12)c1cccc(Cl)c1` [Example 47, N-(3-Chlorophenyl)-N-((8-fluoro-2-oxo-1,2-dihydroquinolin-4-yl)methyl)-1-methyl-1H-imidazole-2-carboxamide], the EC50 was more than 5 µM.

Turning to `Cc1ccc2[nH]c(=O)c(CN(Cc3ccccc3)c3ccc(C#N)cn3)cc2c1` [Example 103, 6-(Benzyl((6-methyl-2-oxo-1,2-dihydroquinolin-3-yl)methyl)amino)nicotinonitrile], the concentration for a half-maximal effect (EC50) was more than 5 µM. In turn, `Cc1cnccc1-c1nc2ccccc2n1Cc1cc(=O)[nH]c2c(F)c(F)ccc12` [Example 199, 7,8-Difluoro-4-((2-(3-methylpyridin-4-yl)-1H-benzo[d]imidazol-1-yl)methyl)quinolin-2(1H)-one] showed an EC50 not above 5 µM. The compound `Cn1nnc(C(=O)N(Cc2cc(=O)[nH]c3c(F)c(F)ccc23)c2cccc(Cl)c2)n1` [Example 169] had an EC50 not above 5 µM.

Compound `CC(C)c1cn(Cc2cc(=O)[nH]c3c(F)c(F)ccc23)c(-c2ccccc2)n1` [Example 254, 7,8-Difluoro-4-((4-isopropyl-2-phenyl-1H-imidazol-1-yl)methyl)quinolin-2(1H)-one] yielded an EC50 not above 5 µM.

`Cn1nccc1-c1nc2ccccc2n1Cc1cc(=O)[nH]c2c(F)c(F)ccc12` [Example 233, 7,8-Difluoro-4-((2-(1-methyl-1H-pyrazol-5-yl)-1H-benzo[d]imidazol-1-yl)methyl)quinolin-2(1H)-one] had a concentration for a half-maximal effect (EC50) not above 5 µM.

Take `Cc1ccncc1-c1nc2ccccc2n1Cc1cc(=O)[nH]c2c(F)c(F)ccc12` [Example 121, 7,8-Difluoro-4-((2-(4-methylpyridin-3-yl)-1H-benzo[d]imidazol-1-yl)methyl)quinolin-2(1H)-one]: the EC50 was more than 5 µM. The result for `O=C(c1ccccc1F)N(Cc1cc(=O)[nH]c2c(F)cccc12)c1cccc(Cl)c1` [Example 54, N-(3-Chlorophenyl)-2-fluoro-N-((8-fluoro-2-oxo-1,2-dihydroquinolin-4-yl)methyl)benzamide] reads more than 5 µM. The result for `O=c1cc(Cn2c(-c3cccnc3)nc3ccccc32)c2ccccc2[nH]1` [Example 125, 4-((2-(Pyridin-3-yl)-1H-benzo[d]imidazol-1-yl)methyl)quinolin-2(1H)-one] reads more than 5 µM; that for `CSc1nc2ccccc2n1Cc1cc(=O)[nH]c2c(F)c(F)ccc12` [Example 192, 7,8-Difluoro-4-((2-(methylthio)-1H-benzo[d]imidazol-1-yl)methyl)quinolin-2(1H)-one], not above 5 µM.

`Cc1ncsc1C(=O)N(Cc1cc(=O)n(C)c2c(F)cccc12)c1cccc(Cl)c1` [Example 117, N-(3-Chlorophenyl)-N-((8-fluoro-1-methyl-2-oxo-1,2-dihydroquinolin-4-yl)methyl)-4-methylthiazole-5-carboxamide] yielded an EC50 of more than 5 µM.

In the case of `O=c1cc(Cn2c(C3CCNCC3)nc3ccccc32)c2ccc(F)c(F)c2[nH]1` [Example 212, 7,8-Difluoro-4-((2-(piperidin-4-yl)-1H-benzo[d]imidazol-1-yl)methyl)quinolin-2(1H)-one], the EC50 was more than 5 µM.

For `CC=C(C)c1nc2ccccc2n1Cc1cc(=O)[nH]c2c(F)c(F)ccc12` (single isomer, unassigned) [Example 210, (E or Z)-4-((2-(But-2-en-2-yl)-1H-benzo[d]imidazol-1-yl)methyl)-7,8-difluoroquinolin-2(1H)-one], the EC50 was not above 5 µM. The result for `CC(C)Cc1nc2ccccc2n1Cc1cc(=O)[nH]c2c(F)c(F)ccc12` [Example 195, 7,8-Difluoro-4-((2-isobutyl-1H-benzo[d]imidazol-1-yl)methyl)quinolin-2(1H)-one] reads not above 5 µM; that for `Cc1ncsc1C(=O)N(Cc1cc(=O)[nH]c2c(F)ccc(C)c12)c1cccc(Cl)c1` [Example 50, N-(3-Chlorophenyl)-N-((8-fluoro-5-methyl-2-oxo-1,2-dihydroquinolin-4-yl)methyl)-4-methylthiazole-5-carboxamide], more than 5 µM; that for `Cc1oncc1C(=O)N(Cc1cc2cccc(F)c2[nH]c1=O)c1cccc(Cl)c1` [Example 173, N-(3-Chlorophenyl)-N-((8-fluoro-2-oxo-1,2-dihydroquinolin-3-yl)methyl)-5-methylisoxazole-4-carboxamide], more than 5 µM. The result for `O=C(c1cscn1)N(Cc1cc(=O)[nH]c2ccccc12)c1ccccc1` [Example 28, N-((2-Oxo-1,2-dihydroquinolin-4-yl)methyl)-N-phenylthiazole-4-carboxamide] reads more than 5 µM. The result for `Cc1ncsc1C(=O)N(Cc1cc(=O)[nH]c2c(F)c(F)ccc12)c1ccc(N2CCCCC2)cc1` [Example 170, N-((7,8-Difluoro-2-oxo-1,2-dihydroquinolin-4-yl)methyl)-4-methyl-N-(4-(piperidin-1-yl)phenyl)thiazole-5-carboxamide] reads more than 5 µM. Turning to `CCc1nc2ccccc2n1Cc1cc(=O)[nH]c2c(F)c(F)ccc12` [Example 221, 7,8-Difluoro-4-((2-ethyl-1H-benzo[d]imidazol-1-yl)methyl)quinolin-2(1H)-one], the concentration giving a half-maximal response (EC50) is not above 5 µM. For `Cc1ncsc1C(=O)N(Cc1cc(=O)[nH]c2c(F)c(F)ccc12)c1cc(F)cc(F)c1` [Example 178, N-(3,5-Difluorophenyl)-N-((7,8-fluoro-2-oxo-1,2-dihydroquinolin-4-yl)methyl)-4-methylthiazole-5-carboxamide], the EC50 is not above 5 µM.
